The values that follow come from ChEMBL document CHEMBL3826952, “Design and Synthesis of 2-Alkylpyrimidine-4,6-diol and 6-Alkylpyridine-2,4-diol as Potent GPR84 Agonists” (ACS Med Chem Lett, 2016).

Series [1] has as its target G-protein coupled receptor 84 (Homo sapiens, UniProt Q9NQS5). Kind of series: Agonist activity at GPR84 (unknown origin) expressed in HEK293 cells coexpressing Galpha16 protein by Fluo-4 AM dye based calcium mobilization assay. The series is classed as functional, cell-based. (Calcium flux is commonly read through the fluorescence of an indicator in the cells.)
Series [2] deals with T1, Glucose-dependent insulinotropic receptor (Homo sapiens, UniProt Q8TDV5).
T1 sequence (Q8TDV5 whole entry): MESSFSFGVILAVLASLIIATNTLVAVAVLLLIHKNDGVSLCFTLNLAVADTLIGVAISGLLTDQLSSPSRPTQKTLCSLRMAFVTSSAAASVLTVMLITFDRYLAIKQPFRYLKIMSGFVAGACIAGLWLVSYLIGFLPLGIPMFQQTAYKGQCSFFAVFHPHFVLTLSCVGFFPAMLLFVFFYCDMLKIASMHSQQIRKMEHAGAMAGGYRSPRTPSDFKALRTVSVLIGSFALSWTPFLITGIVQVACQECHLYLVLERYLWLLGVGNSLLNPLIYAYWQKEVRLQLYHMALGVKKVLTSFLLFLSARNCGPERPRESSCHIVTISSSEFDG
Kind of series: Agonist activity at GPR119 (unknown origin) by Fluo-4 AM dye based calcium mobilization assay. In kind it is functional.

In series [3] the target is T2, Free fatty acid receptor 1 (Homo sapiens, UniProt O14842). Nature of the series: Agonist activity at GPR40 (unknown origin) by Fluo-4 AM dye based calcium mobilization assay. In kind it is functional.
T2 sequence (O14842 whole entry): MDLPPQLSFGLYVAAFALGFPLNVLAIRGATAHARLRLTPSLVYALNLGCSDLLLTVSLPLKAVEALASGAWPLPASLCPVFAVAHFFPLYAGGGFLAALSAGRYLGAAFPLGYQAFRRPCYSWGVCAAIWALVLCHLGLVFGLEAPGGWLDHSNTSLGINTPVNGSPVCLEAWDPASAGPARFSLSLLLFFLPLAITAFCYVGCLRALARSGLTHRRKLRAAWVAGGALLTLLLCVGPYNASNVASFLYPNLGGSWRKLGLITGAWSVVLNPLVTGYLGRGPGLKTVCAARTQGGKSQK
Series [4] is described as follows: Cmax in ICR mouse plasma at 10 mg/kg, po administered through gavage measured up to 24 hrs post dose by LC-MS/MS analysis. The series is classed as ADME, organism-based. Further details: dose 10 mg/kg, route oral.
A short description of series [5]: AUC (0 to t) in ICR mouse plasma at 10 mg/kg, po administered through gavage measured up to 24 hrs post dose by LC-MS/MS analysis. The series is classed as ADME, organism-based. Also noted: time < 24 hr, dose 10 mg/kg, route oral.
In series [6] the target is T3, Free fatty acid receptor 3 (Homo sapiens) (UniProt O14843).
T3 sequence (whole entry): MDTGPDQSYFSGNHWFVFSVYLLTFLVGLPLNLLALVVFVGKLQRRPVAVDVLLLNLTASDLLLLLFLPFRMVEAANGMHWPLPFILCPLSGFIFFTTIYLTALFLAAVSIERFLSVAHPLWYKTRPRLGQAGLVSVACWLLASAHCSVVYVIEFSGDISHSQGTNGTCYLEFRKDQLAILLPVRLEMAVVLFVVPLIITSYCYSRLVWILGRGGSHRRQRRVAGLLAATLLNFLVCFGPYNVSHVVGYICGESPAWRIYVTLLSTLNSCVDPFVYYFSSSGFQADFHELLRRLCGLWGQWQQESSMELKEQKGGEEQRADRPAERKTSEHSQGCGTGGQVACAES
Nature of the series: Agonist activity at GPR41 (unknown origin) up to 100 uM by Fluo-4 AM dye based calcium mobilization assay. The series is classed as functional.

For series [7], the target named is T4, Free fatty acid receptor 4 (Homo sapiens) (UniProt Q5NUL3).
T4 sequence (whole entry): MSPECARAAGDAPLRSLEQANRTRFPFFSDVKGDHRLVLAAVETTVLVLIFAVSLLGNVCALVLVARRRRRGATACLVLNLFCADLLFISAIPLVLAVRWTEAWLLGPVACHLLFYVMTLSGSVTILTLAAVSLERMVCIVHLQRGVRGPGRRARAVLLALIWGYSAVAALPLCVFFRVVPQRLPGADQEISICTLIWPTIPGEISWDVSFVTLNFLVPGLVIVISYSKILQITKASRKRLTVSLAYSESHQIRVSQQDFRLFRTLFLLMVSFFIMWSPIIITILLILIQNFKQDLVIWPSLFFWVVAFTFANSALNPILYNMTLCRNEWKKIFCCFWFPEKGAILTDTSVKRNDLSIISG
Kind of series: Agonist activity at GPR120 (unknown origin) up to 100 uM by Fluo-4 AM dye based calcium mobilization assay. In kind it is functional.

A short description of series [8]: Oral bioavailability in ICR mouse at 10 mg/kg administered through gavage measured up to 24 hrs post dose by LC-MS/MS analysis. In kind it is ADME, organism-based. The following applies: in vivo.
Series [9] has as its target T2, Free fatty acid receptor 1. Kind of series: Agonist activity at GPR40 (unknown origin) up to 100 uM by Fluo-4 AM dye based calcium mobilization assay. The series is classed as functional.
The target of series [10] is T5, Glucose-dependent insulinotropic receptor (Homo sapiens) (UniProt Q8TDV5).
T5 sequence (whole entry): T1 sequence (Q8TDV5 whole entry)
Nature of the series: Agonist activity at GPR119 (unknown origin) up to 100 uM by Fluo-4 AM dye based calcium mobilization assay. The series is classed as functional.

Series [11] has as its target T6, Free fatty acid receptor 3 (Homo sapiens, UniProt O14843).
T6 sequence (O14843 whole entry): T3 sequence (whole entry)
Kind of series: Agonist activity at GPR41 (unknown origin) by Fluo-4 AM dye based calcium mobilization assay. In kind it is functional.

Calls of active or inactive are those of the source. The rule behind the calls is not given here.

The term EC50 denotes the concentration that produces a half-maximal response. The term Cmax denotes the maximum level reached in the sampled fluid or tissue. One may read the AUC(0-t) as exposure summed from dosing to a finite time, without extrapolation to infinity. Low values mean low exposure, high ones high exposure. Broadly, the bioavailability is the share of a dose that reaches the circulation, judged against a reference dose that is usually intravenous. Low readings indicate poor availability, high ones good availability.

Chain of G-protein coupled receptor 84 (Q9NQS5 whole entry): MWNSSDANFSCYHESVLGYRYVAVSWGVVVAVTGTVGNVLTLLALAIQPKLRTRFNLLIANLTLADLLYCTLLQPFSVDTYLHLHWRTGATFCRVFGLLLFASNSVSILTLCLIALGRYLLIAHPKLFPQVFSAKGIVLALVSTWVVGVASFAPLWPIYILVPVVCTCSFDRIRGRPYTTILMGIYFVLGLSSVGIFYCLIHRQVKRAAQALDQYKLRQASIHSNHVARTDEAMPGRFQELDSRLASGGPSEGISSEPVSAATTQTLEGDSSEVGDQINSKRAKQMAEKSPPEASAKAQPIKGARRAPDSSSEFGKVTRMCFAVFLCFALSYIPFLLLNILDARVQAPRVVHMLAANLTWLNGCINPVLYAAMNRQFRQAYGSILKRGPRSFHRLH

For `Nc1cc(N)nc(SCCCCc2ccccc2)n1`, the EC50 in [1] was above 100 µM.

For `OCCCCCCCCSc1nc(O)cc(O)n1`, the EC50 in series [1] is above 100 µM.

Regarding `CC/C=C\CCSc1nc(O)cc(O)n1`, the EC50 in series [1] was found to be 0.938 µM.

Turning to `N#CCCCCc1nc(O)cc(O)n1`, in series [1], the EC50 is above 100 µM.

For the molecule `CCCCCCSc1nc(OCCCCCCCO)cc(=O)[nH]1`, in series [1], the EC50 is above 100 µM.

Regarding `Oc1cc(C(F)(F)F)nc(SCCCCc2ccccc2)n1`, in series [1], the EC50 was above 100 µM.

For the molecule `CC(C)(C)OC(=O)N1CCC(OCc2nc(-c3ccncc3)no2)CC1`, the EC50 in series [2] was 5.13 µM.

Consider `CCCCCCSc1nc(O)cc(=O)n1Cc1ccccc1`, for which the half-maximal effective concentration (EC50) in series [1] was above 100 µM.

As to `CCCCCCc1nc(O)cc(O)n1`, the EC50 in series [1] turned out to be 0.454 µM.

`CCCCCCSc1nc(O)cc(=O)n1C`: the EC50 in series [1] was above 100 µM.

Regarding `CCCCCCOc1cc(O)nc(SCCCCCC)n1`, the EC50 in [1] was above 100 µM.

On to `CC/C=C\C/C=C\C/C=C\C/C=C\C/C=C\C/C=C\CCC(=O)O` [DOCONEXENT], for which the EC50 in series [3] came to 11.7 µM.

`CCCCCCCCCc1cc(O)cc(O)n1` gave a Cmax in series [4] of 229 ng/mL. The molecule further returned an AUC(0-t) at 24 h in [5] of 399 ng·h/mL. In addition, the outcome in [6], in [7], in [9] and in series [10] was inactive. Further, the bioavailability in series [8] turned out to be 24.3%.

`Nc1cc(O)nc(SCCCCc2ccccc2)n1`: in series [1], the EC50 was above 100 µM.

With `C#CCCSc1nc(O)cc(O)n1`, in series [1], the EC50 is 8.85 µM.

Take `Cc1c(O)nc(SCCCCc2ccccc2)nc1O`: the EC50 in series [1] is above 100 µM.

In the case of `CCCC(=O)[O-].[Na+]` [SODIUM BUTYRATE], the EC50 in series [11] is 10.1 µM.

As to `Cc1cc(O)nc(SCCCCc2ccccc2)n1`, the EC50 in series [1] was above 100 µM.
